“And” between values parts separate entries of the source, which are not always exact repeats. Equal values may be shown once. Inconclusive results and toxic doses are left out. How the source made its calls: active means survival T/C of 150% or more; inactive means T/C below 125% in these data.
System: BDF1 mice, P388 leukemia ip, median survival T/C
Assay: NCI In Vivo Anticancer Drug Screen. Data for tumor model P388 Leukemia (intraperitoneal) in B6D2F1 (BDF1) mice
Conditions: endpoint: median survival time, higher = longer survival
In short: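 Compound-treated tumour-bearing mice were compared with vehicle-treated controls. Survival was recorded, and the value is the treated-group measurement divided by the control-group measurement (T/C).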

[1] = dose: 50.0 mg/kg/injection, schedule: Q01DX009 (ip), vehicle: Klucel (hydroxypropylcellulose) (HPC)
[2] = dose: 100.0 mg/kg/injection, schedule: Q01DX009 (ip), vehicle: Klucel (hydroxypropylcellulose) (HPC)
[3] = dose: 200.0 mg/kg/injection, schedule: Q01DX009 (ip), vehicle: Klucel (hydroxypropylcellulose) (HPC)
[4] = dose: 100.0 mg/kg/injection, schedule: Q01DX001 (ip), vehicle: saline
[5] = dose: 50.0 mg/kg/injection, schedule: Q01DX009 (ip), vehicle: saline
[6] = dose: 100.0 mg/kg/injection, schedule: Q01DX009 (ip), vehicle: saline
[7] = dose: 50.0 mg/kg/injection, schedule: Q01DX005 (ip), vehicle: saline with Tween-80
[8] = dose: 100.0 mg/kg/injection, schedule: Q01DX005 (ip), vehicle: saline with Tween-80
[9] = dose: 200.0 mg/kg/injection, schedule: Q01DX005 (ip), vehicle: saline with Tween-80
[10] = dose: 100.0 mg/kg/injection, schedule: Q04DX003 (ip), vehicle: saline with Tween-80
[11] = dose: 100.0 mg/kg/injection, schedule: Q01DX001 (ip), vehicle: Klucel (hydroxypropylcellulose) (HPC)
[12] = dose: 50.0 mg/kg/injection, schedule: Q01DX009 (ip), vehicle: saline with Tween-80
[13] = dose: 100.0 mg/kg/injection, schedule: Q01DX009 (ip), vehicle: saline with Tween-80
[14] = dose: 200.0 mg/kg/injection, schedule: Q01DX009 (ip), vehicle: saline with Tween-80

Measured: T/C

CN(C)P(=O)(N(C)C)N(C)C (tested in a mixture with another compound)
inactive: [1] 98 % of control | [2] 105 % of control | [3] 105 % of control

CCN=C(N)N=C(N)N
inactive: [4] 102 % of control

O=C1OC2CC=CCC2CC1O (stereo unspecified)
inactive: dose: 12.5 mg/kg/injection, schedule: Q01DX009 (ip), vehicle: saline 92 % of control | dose: 25.0 mg/kg/injection, schedule: Q01DX009 (ip), vehicle: saline 96 % of control | [5] 102 % of control | [6] 102 % of control

COc1ccc(CC2c3cc(OC)c(OC)cc3CCN2C(=O)OCc2ccccc2)cc1OC (stereo unspecified)
inactive: [7] 91 % of control | [8] 93 % of control | [9] 92 % of control

Cc1c(N)nc(Br)c2ccccc12
inactive: dose: 100.0 mg/kg/injection, schedule: Q04DX003 (ip), vehicle: saline sonified 91 % of control | dose: 200.0 mg/kg/injection, schedule: Q04DX003 (ip), vehicle: saline sonified 116 % of control

NS(=O)(=O)c1ccc(NC(=O)/C=C/C(=O)O)cc1
inactive: [10] 100 % of control | dose: 200.0 mg/kg/injection, schedule: Q04DX003 (ip), vehicle: saline with Tween-80 100 % of control | dose: 400.0 mg/kg/injection, schedule: Q04DX003 (ip), vehicle: saline with Tween-80 95 % of control

CN(C)Cc1ccc(-c2cc3onc(-c4ccccc4)c3c(=O)n2C)cc1
inactive: [7] 108 % of control | [8] 94 % of control | [9] 97 % of control

COC(=O)C(c1ccccc1)C(CC(=O)c1ccccc1)c1ccccc1 (stereo unspecified)
inactive: [1] 86 % of control | [2] 89 % of control and 99 % of control | [3] 92 % of control and 101 % of control | dose: 400.0 mg/kg/injection, schedule: Q01DX009 (ip), vehicle: Klucel (hydroxypropylcellulose) (HPC) 97 % of control

Cn1c(=O)[nH]c2ccccc2c1=O
inactive: [11] 104 % of control | dose: 200.0 mg/kg/injection, schedule: Q01DX001 (ip), vehicle: Klucel (hydroxypropylcellulose) (HPC) 104 % of control | dose: 400.0 mg/kg/injection, schedule: Q01DX001 (ip), vehicle: Klucel (hydroxypropylcellulose) (HPC) 107 % of control

O=NO.O=N[O-].O=N[O-].[Co+3].[NH-]CC[N-]CCO.[NH-]CC[N-]CCO
inactive: dose: 25.0 mg/kg/injection, schedule: Q01DX009 (ip), vehicle: water 104 % of control | dose: 25.0 mg/kg/injection, schedule: Q04DX003 (ip), vehicle: water 100 % of control | dose: 50.0 mg/kg/injection, schedule: Q01DX009 (ip), vehicle: water 98 % of control | dose: 50.0 mg/kg/injection, schedule: Q04DX003 (ip), vehicle: water 109 % of control | dose: 100.0 mg/kg/injection, schedule: Q04DX003 (ip), vehicle: water 104 % of control

O=C(NC(NC(=O)c1ccc(Cl)cc1)C(Cl)(Cl)Cl)c1ccc(Cl)cc1
inactive: dose: 25.0 mg/kg/injection, schedule: Q04DX003 (ip), vehicle: saline with Tween-80 90 % of control | dose: 50.0 mg/kg/injection, schedule: Q04DX003 (ip), vehicle: saline with Tween-80 86 % of control | [10] 90 % of control

c1ccc(C2C(c3ccnc4c3ccc3ccccc34)C(c3ccccc3)C2c2ccnc3c2ccc2ccccc23)cc1 (stereo unspecified)
inactive: dose: 25.0 mg/kg/injection, schedule: Q01DX001 (ip), vehicle: Klucel (hydroxypropylcellulose) (HPC) 93 % of control and 91 % of control | dose: 50.0 mg/kg/injection, schedule: Q01DX001 (ip), vehicle: Klucel (hydroxypropylcellulose) (HPC) 97 % of control and 100 % of control | [11] 100 % of control and 106 % of control

O=c1[nH]c(=O)c2cccnc2[nH]1
inactive: dose: 25.0 mg/kg/injection, schedule: Q01DX009 (ip), vehicle: saline sonified 100 % of control | dose: 50.0 mg/kg/injection, schedule: Q01DX009 (ip), vehicle: saline sonified 100 % of control | dose: 100.0 mg/kg/injection, schedule: Q01DX009 (ip), vehicle: saline sonified 94 % of control

CCCC(CC)C(C(=O)OCC)C1=NC(C)(C)CC(C)O1 (stereo unspecified)
inactive: dose: 12.5 mg/kg/injection, schedule: Q01DX001 (ip), vehicle: saline sonified 100 % of control | dose: 25.0 mg/kg/injection, schedule: Q01DX001 (ip), vehicle: saline sonified 100 % of control | dose: 50.0 mg/kg/injection, schedule: Q01DX001 (ip), vehicle: saline sonified 100 % of control

Cc1ccccc1OS(=O)(=O)c1ccccc1[N+](=O)[O-]
inactive: dose: 100.0 mg/kg/injection, schedule: Q01DX001 (ip), vehicle: saline sonified 100 % of control | dose: 200.0 mg/kg/injection, schedule: Q01DX001 (ip), vehicle: saline sonified 110 % of control | dose: 400.0 mg/kg/injection, schedule: Q01DX001 (ip), vehicle: saline sonified 105 % of control

[N-]=[N+]=C1C=C(c2ccccc2)N=C1c1ccccc1
inactive: [5] 109 % of control | [6] 88 % of control

Nc1ccc(CCc2ccccc2)cc1
inactive: dose: 12.5 mg/kg/injection, schedule: Q01DX009 (ip), vehicle: saline with Tween-80 122 % of control | dose: 25.0 mg/kg/injection, schedule: Q01DX009 (ip), vehicle: saline with Tween-80 100 % of control | [12] 109 % of control | dose: 56.25 mg/kg/injection, schedule: Q04DX003 (ip), vehicle: saline with Tween-80 108 % of control | dose: 75.0 mg/kg/injection, schedule: Q01DX009 (ip), vehicle: saline with Tween-80 118 % of control | dose: 112.5 mg/kg/injection, schedule: Q04DX003 (ip), vehicle: saline with Tween-80 112 % of control

C(=N\N=C\c1c[nH]c2ccccc12)/c1c[nH]c2ccccc12
inactive: dose: 100.0 mg/kg/injection, schedule: Q01DX009 (ip), vehicle: gum acacia 89 % of control | dose: 100.0 mg/kg/injection, schedule: Q04DX003 (ip), vehicle: gum acacia 108 % of control | dose: 200.0 mg/kg/injection, schedule: Q01DX009 (ip), vehicle: gum acacia 89 % of control | dose: 200.0 mg/kg/injection, schedule: Q04DX003 (ip), vehicle: gum acacia 95 % of control | dose: 400.0 mg/kg/injection, schedule: Q01DX009 (ip), vehicle: gum acacia 96 % of control | dose: 400.0 mg/kg/injection, schedule: Q04DX003 (ip), vehicle: gum acacia 100 % of control

O=C(Nc1ccc([N+](=O)[O-])cc1)OCC#CC#CCOC(=O)Nc1ccc([N+](=O)[O-])cc1
inactive: [1] 100 % of control | [2] 100 % of control

O=C(O)c1sccc1-c1cccc2ccccc12
inactive: dose: 50.0 mg/kg/injection, schedule: Q01DX001 (ip), vehicle: saline 104 % of control | [4] 100 % of control | dose: 200.0 mg/kg/injection, schedule: Q01DX001 (ip), vehicle: saline 95 % of control

CCc1nnc2n1N=C(c1ccc(-c3ccccc3)cc1)CS2
inactive: [12] 90 % of control | [13] 89 % of control | [14] 90 % of control

CCCCN(CCCC)CC(O)c1c2cccc(Cl)c2cc2c(Cl)cccc12 (stereo unspecified)
inactive: [12] 107 % of control | [13] 102 % of control | [14] 123 % of control

Reference: PubChem BioAssay AID328 (DTP/NCI, 2004)
